# Test results as given in patent US7781454B2 (priority 2006, dated 2010).
# Where a name gives a salt, the structure may show the parent alone. Read-outs that look alike come from different tables or passages of the source.
# Assays:
# [1] = tested on: HIV strain containing the Y181C mutation; test: Spread assay: inhibition of HIV replication (Y181C mutant strain); assay type: cell-based; details: Human immunodeficiency virus 1, read-out: Spread (Y181C) CIC95
# Procedure: (§1) Assays for the inhibition of acute HIV-1 infection of T-lymphoid cells (alternatively referred to herein as the “spread assay”) were conducted in accordance with Vacca, J. P. et al., Proc. Natl. Acad. Sci. USA 1994, 91: 4096. The assays tested for inhibition of wild type HIV-1 and of HIV strains containing the Y181C or K103N mutation. […] The compounds of Examples 1 to 4 had CIC95 values of less than 10 micromolar in the assay employing the K103N mutant strain. […] Table C also reports the CIC95 values of the compounds of Examples 1-7, 9-13 and 15-29 obtained in the assays employing the Y181C mutant strain and the K103N mutant strain.
# [2] = biological target: T1, mutant HIV reverse transcriptase (K103N mutation) (Human immunodeficiency virus type 1 group M subtype B, UniProt P04585, K690N); test: ECL assay for inhibition of mutant HIV reverse transcriptase (K103N); assay type: biochemical
# T1 construct: against mutant HIV reverse transcriptase; made in house
# Procedure: (§2) 100 μL reaction mixtures were initiated with a combination of primer-template substrate ([…]) and dNTPs (0.6 μM dNTPs, 1.25 μM BrdUTP). The heterodimeric nucleic acid substrate was generated by annealing the DNA primer pD500 (described in Shaw-Reid et al., J. Biol. Chem., 278: 2777-2780; obtained from Integrated DNA Technologies) to t500, a 500 nucleotide RNA template created by in vitro transcription (see Shaw-Reid et al., J. Biol. Chem., 278: 2777-2780). After 1 hour incubation at 37° C., reactions were quenched by 10 μL of 1 N NaOH. Microtiter plates were incubated for an additional 30 minutes at room temperature and then neutralized with 10 μL of 1 N HCl. A mixture of detection buffer containing ruthenylated anti-BrdU antibody and streptavidin coated magnetic beads were added to the plate and incubated at room temperature for 1.5 hours prior to quantification via electrochemiluminescence instrument.
# (§3) Analogous assays were conducted substituting mutant HIV strains to determine the in vitro inhibition of compounds of the present invention against mutant HIV reverse transcriptase. In one strain the reverse transcriptase has the Y181C mutation and in the other strain the reverse transcriptase has the K103N mutation. The mutations were generated with the QUIKCHANGE site-directed mutagenesis kit (Stratagene).
# wild type HIV-1 = test: Spread assay: inhibition of acute HIV-1 infection of T-lymphoid cells (WT); assay type: cell-based; details: Human immunodeficiency virus 1, T-lymphoid; wild-type strain; 10% FBS; read-out: Spread (WT) CIC95
# Procedure: as §1
# [3] = biological target: HIV-1 RT enzyme (wild-type) (Human immunodeficiency virus type 1 group M subtype B, UniProt P04585); test: ECL assay for inhibition of HIV reverse transcriptase (WT); assay type: biochemical
# Procedure: as §2
# [4] = biological target: T2, mutant HIV reverse transcriptase (Y181C mutation) (Human immunodeficiency virus type 1 group M subtype B, UniProt P04585, Y768C); test: ECL assay for inhibition of mutant HIV reverse transcriptase (Y181C); assay type: biochemical
# T2 construct: against mutant HIV reverse transcriptase; made in house
# Procedure: as §2, §3
# [5] = tested on: HIV strain containing the K103N mutation; test: Spread assay: inhibition of HIV replication (K103N mutant strain); assay type: cell-based; details: Human immunodeficiency virus 1, read-out: Spread (K103N) CIC95
# Procedure: as §1
# [6] = K103N mutant RT, read-out: ECL Assay (K103N) IC50
# [7] = Y181C mutant RT, read-out: ECL Assay (Y181C) IC50
SMILES,IC95 [1] [nM],"IC50 [2, 6] [nM]",IC95 (wild type HIV-1) [nM],IC50 [3] [nM],"IC50 [4, 7] [nM]",IC95 [5] [nM],IC50 [2] [nM],IC50 [4] [nM]
"N#Cc1cc(Cl)cc(Oc2c(Cl)ccc3c2nnn3CC(=O)Nc2ccccc2Cl)c1 [Example 12, 2-[5-chloro-4-(3-chloro-5-cyanophenoxy)-1H-1,2,3-benzotriazol-1-yl]-N-(2-chlorophenyl)acetamide]",137,0.94,23,0.45,0.89,41,,
"N#Cc1cc(Cl)cc(Oc2c(Cl)ccc3c2nnn3Cc2n[nH]c3ncccc23)c1Cl [Example 19, 2,5-dichloro-3-{[5-chloro-1-(1H-pyrazolo[3,4-b]pyridin-3-ylmethyl)-1H-1,2,3-benzotriazol-4-yl]oxy}benzonitrile]",27,0.93,7,0.57,0.77,15,,
"N#Cc1cc(Cl)cc(Oc2c(Cl)ccc3c2ncn3Cc2n[nH]c3ncccc23)c1 [Example 7, 3-chloro-5-{[5-chloro-1-(1H-pyrazolo[3,4-b]pyridin-3-ylmethyl)-1H-benzimidazol-4-yl]oxy}benzonitrile dihydrochloride]",225,,28,0.92,,39,4.1,1.7
"O=Cc1cc(Cl)cc(Oc2c(Cl)ccc3c2nnn3Cc2n[nH]c3ncccc23)c1 [Example 18, 3-chloro-5-{[5-chloro-1-(1H-pyrazolo[3,4-b]pyridin-3-ylmethyl)-1H-1,2,3-benzotriazol-4-yl]oxy}benzaldehyde]",825,2.6,55,2.1,3.7,154,,
"NCc1cc(Cl)cc(Oc2c(Cl)ccc3c2nnn3Cc2n[nH]c3ncccc23)c1 [Example 17, (3-chloro-5-{[5-chloro-1-(1H-pyrazolo[3,4-b]pyridin-3-ylmethyl)-1H-1,2,3-benzotriazol-4-yl]oxy}phenyl)methanaminium trifluoroacetate]",> 833,,60,38,,262,79,74
"N#Cc1cc(Cl)cc(Oc2c(Cl)ccc3c2nnn3Cc2n[nH]c3nc(N)ccc23)c1 [Example 6, 3-({1-[(6-amino-1H-pyrazolo[3,4-b]pyridin-3-yl)methyl]-5-chloro-1H-1,2,3-benzotriazol-4-yl}oxy)-5-chlorobenzonitrile]",25,0.53,3,0.4,0.82,< 4,,
"N#Cc1cc(Cl)cc(Oc2c(Cl)ccc3c2nnn3Cc2n[nH]c3ncccc23)c1 [Example 4, 3-chloro-5-{[5-chloro-1-(1H-pyrazolo[3,4-b]pyridin-3-ylmethyl)-1H-1,2,3-benzotriazol-4-yl]oxy}benzonitrile]",24,0.41,4,0.24,0.44,5,,
"N#Cc1cc(Cl)cc(Oc2c(Cl)ccc3c2ncn3Cc2n[nH]c3nc(N)ccc23)c1 [Example 10, 3-({1-[(6-amino-1H-pyrazolo[3,4-b]pyridin-3-yl)methyl]-5-chloro-1H-benzimidazol-4-yl}oxy)-5-chlorobenzonitrile bis(trifluoroacetate)]",468,,21,1.5,,85,13,13
